# Columns and labels:
# [1] = system: Primary Rat cortical astrocytes; assay: Proliferation assay (cell confluence), astrocytes; format: cell-based; settings: at 5 μM
# Description: C2C12 were plated at 15,000 cells per well and then differentiated into myotubes with DMEM supplemented with 2% horse serum for 3 days in 24 well ImageLock™ plate (Essen Instruments, Mich., USA). Primary Rat cortical astrocytes were plated at 3.105 cells/ml onto 24 well ImageLock™ plate.
# Cells were placed into the IncuCyte™ at 37° C. and 95% CO2/5% O2, for two to three days. During this time, the cells within each well were repeatedly imaged at fixed time intervals (every three hours). The IncuCyte™ system automatically monitored the proliferation using the percentage of confluence. Percent of confluence can be graphed over time to evaluate the characteristics of proliferation in the presence of pharmacological agents.
# […] The percentage of reduction of cell confluence was calculated from the AUCs in comparison with the AUCs of the control wells (1% DMSO).
# [2] = system: Primary Rat cortical astrocytes; assay: Toxicity (percent of cell death), astrocytes; format: cell-based; settings: 20 μM
# Description: EphA4 kinase inhibition is assessed by both an enzymatic assay measuring the phosphorylation of a purified recombinant EphA4 kinase and a cell-based assay using the activation of pGas-Luciferase system in EphA4-transfected CHO-K1 cells. The functional effects of EphA4 RTK inhibitors on cell motility and proliferation is evaluated by the scratch wound assay. The effect of EphA4 RTK inhibitors is also directly measured on the cell confluence. The counterscreen assays (cell counterscreen, Src, Jak2 and P38α kinase) identified other potential inhibitory activities of compounds unrelated to EphA4 kinase. The toxicity is measured by the percent of cell death in the different cell assays. Values represent IC50 and IP in μM calculated from the dose-response curves. Values in parentheses give the maximum percent inhibition.
# [3] = molecular target: T1, P38alpha kinase (Homo sapiens, UniProt Q16539); assay: P38 alpha kinase counterscreen assay (Caliper); format: biochemical
# T1 construct: purchased Dundee Library
# T1 sequence (Q16539 whole entry): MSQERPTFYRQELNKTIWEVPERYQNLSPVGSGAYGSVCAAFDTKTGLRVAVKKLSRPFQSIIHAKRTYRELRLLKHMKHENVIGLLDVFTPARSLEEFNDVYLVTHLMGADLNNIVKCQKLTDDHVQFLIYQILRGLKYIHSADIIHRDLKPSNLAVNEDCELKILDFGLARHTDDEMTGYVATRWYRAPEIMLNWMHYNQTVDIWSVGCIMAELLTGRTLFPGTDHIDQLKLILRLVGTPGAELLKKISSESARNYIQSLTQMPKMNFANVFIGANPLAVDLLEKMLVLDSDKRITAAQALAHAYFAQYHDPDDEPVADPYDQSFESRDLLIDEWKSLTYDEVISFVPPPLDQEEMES
# Description: A counterscreen assay was performed to measure p38alpha kinase activity using the Caliper System (LifeSciences, USA). This system is based on the microfluidic technology. P38 alpha kinase activity was measured by the shift in mobility of the non-phosphorylated form when separated by electrophoresis and detected via LED (Light Emitting Diode) induced fluorescence. This assay was automated following the manufacturer's protocol. P38alpha kinase and its substrate GST-MK2 were bought from Dundee Library.
# Compounds were titrated, concentration-response curves were represented and the concentrations for 50% inhibition (IC50) were calculated.
smiles,measurement,setting,value
Cc1ccc(NC(=O)c2cccc(C(F)(F)F)c2)cc1-c1ccc(O)c(NC=O)c1 [Example 133],% Reduction of Confluence Astrocytes,[1],28.2% at 5 μM
same,Max Toxicity Astrocytes % of cell death,[2],0% 20 μM
same,IC50,[3],6.9 µM
